# Reference: PubChem BioAssay (NCI)
#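 Test compounds were applied to cells in 96-well plates for 48 hours at 5 doses. Abbreviation: GI50, concentration required for 50% inhibition of growth. TGI is the concentration that stops growth completely.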
# Legend:
# Experiment in all cases: inhibition of tumour cell growth, NCI panel, 48 h
# SNB-19 CNS = system: SNB-19 CNS
# HS 578T breast = system: HS 578T breast
# SR leukemia = system: SR leukemia
# PC-3 prostate = system: PC-3 prostate
# BT-549 breast = system: BT-549 breast
# KM12 colon = system: KM12 colon
# UO-31 renal = system: UO-31 renal
# HCC-2998 colon = system: HCC-2998 colon
# SF-268 CNS = system: SF-268 CNS
# SF-295 CNS = system: SF-295 CNS
# COLO 205 colon = system: COLO 205 colon
# T-47D breast = system: T-47D breast
# NCI-H23 lung = system: NCI-H23 lung
# HCT-15 colon = system: HCT-15 colon
# MALME-3M melanoma = system: MALME-3M melanoma
# RPMI-8226 leukemia = system: RPMI-8226 leukemia
# IGROV1 ovarian = system: IGROV1 ovarian
# A498 renal = system: A498 renal
# NCI-H522 lung = system: NCI-H522 lung
# TK-10 renal = system: TK-10 renal
# MDA-MB-435 = system: MDA-MB-435
# MCF7 breast = system: MCF7 breast
# K-562 leukemia = system: K-562 leukemia
# MOLT-4 leukemia = system: MOLT-4 leukemia
# A549 NSCLC = system: A549 NSCLC
# OVCAR-5 ovarian = system: OVCAR-5 ovarian
# HOP-92 NSCLC = system: HOP-92 NSCLC
# U251 CNS = system: U251 CNS
# OVCAR-3 ovarian = system: OVCAR-3 ovarian
# M14 melanoma = system: M14 melanoma
# SK-MEL-28 melanoma = system: SK-MEL-28 melanoma
# SNB-75 CNS = system: SNB-75 CNS
# HT29 colon = system: HT29 colon
# NCI-H226 lung = system: NCI-H226 lung
# MDA-MB-231 breast = system: MDA-MB-231 breast
# HL-60(TB) leukemia = system: HL-60(TB) leukemia
# UACC-62 melanoma = system: UACC-62 melanoma
# UACC-257 melanoma = system: UACC-257 melanoma
# OVCAR-8 ovarian = system: OVCAR-8 ovarian
# NCI-H460 lung = system: NCI-H460 lung
# SK-OV-3 ovarian = system: SK-OV-3 ovarian
# SW-620 colon = system: SW-620 colon
# LOX IMVI melanoma = system: LOX IMVI melanoma
# DU-145 prostate = system: DU-145 prostate
# 786-0 renal = system: 786-0 renal
# EKVX NSCLC = system: EKVX NSCLC
# SF-539 CNS = system: SF-539 CNS
# CAKI-1 renal = system: CAKI-1 renal
# ACHN renal = system: ACHN renal
# HCT-116 colon = system: HCT-116 colon
# NCI/ADR-RES ovarian = system: NCI/ADR-RES ovarian
# SN12C renal = system: SN12C renal
# HOP-62 NSCLC = system: HOP-62 NSCLC
# SK-MEL-5 melanoma = system: SK-MEL-5 melanoma
# OVCAR-4 ovarian = system: OVCAR-4 ovarian
# CCRF-CEM leukemia = system: CCRF-CEM leukemia
compound,measurement,setting,value
CC12CC[C@@H]3c4cc5c(cc4CC[C@H]3[C@@H]1CCC2O)oc1cc(F)ccc15 (stereo partly specified),GI50,SNB-19 CNS,19 µM
same,TGI,SNB-19 CNS,40.9 µM
same,GI50,HS 578T breast,26.3 µM
same,TGI,HS 578T breast,49.6 µM
same,GI50,SR leukemia,15.9 µM
same,TGI,SR leukemia,31 µM
same,GI50,PC-3 prostate,17.3 µM
same,TGI,PC-3 prostate,43.2 µM
same,GI50,BT-549 breast,17.7 µM
same,TGI,BT-549 breast,39.1 µM
same,GI50,KM12 colon,17.8 µM
same,TGI,KM12 colon,45.5 µM
same,GI50,UO-31 renal,24.3 µM
same,TGI,UO-31 renal,68 µM
same,GI50,HCC-2998 colon,23.2 µM
same,TGI,HCC-2998 colon,> 100 µM
same,GI50,SF-268 CNS,18.8 µM
same,TGI,SF-268 CNS,62.8 µM
same,GI50,SF-295 CNS,18.3 µM
same,TGI,SF-295 CNS,40.2 µM
same,GI50,COLO 205 colon,17.1 µM
same,TGI,COLO 205 colon,36.2 µM
same,GI50,T-47D breast,12.3 µM
same,TGI,T-47D breast,52.6 µM
same,GI50,NCI-H23 lung,26.1 µM
same,TGI,NCI-H23 lung,99.5 µM
same,GI50,HCT-15 colon,10.8 µM
same,TGI,HCT-15 colon,31.8 µM
same,GI50,MALME-3M melanoma,20.3 µM
same,TGI,MALME-3M melanoma,49.8 µM
same,GI50,RPMI-8226 leukemia,14.6 µM
same,TGI,RPMI-8226 leukemia,> 100 µM
same,GI50,IGROV1 ovarian,16.7 µM
same,TGI,IGROV1 ovarian,36.9 µM
same,TGI,A498 renal,23.6 µM
same,GI50,NCI-H522 lung,23.2 µM
same,TGI,NCI-H522 lung,> 100 µM
same,GI50,TK-10 renal,15.6 µM
same,TGI,TK-10 renal,33.9 µM
same,GI50,MDA-MB-435,39.5 µM
same,TGI,MDA-MB-435,> 100 µM
same,GI50,MCF7 breast,31.7 µM
same,TGI,MCF7 breast,82.7 µM
same,GI50,K-562 leukemia,8.68 µM
same,TGI,K-562 leukemia,47.7 µM
same,GI50,MOLT-4 leukemia,16.2 µM
same,TGI,MOLT-4 leukemia,40.6 µM
same,GI50,A549 NSCLC,33.1 µM
same,TGI,A549 NSCLC,> 100 µM
same,GI50,OVCAR-5 ovarian,24.8 µM
same,TGI,OVCAR-5 ovarian,> 100 µM
same,GI50,HOP-92 NSCLC,21.1 µM
same,TGI,HOP-92 NSCLC,63 µM
same,GI50,U251 CNS,14.1 µM
same,TGI,U251 CNS,28.6 µM
same,GI50,OVCAR-3 ovarian,19.1 µM
same,TGI,OVCAR-3 ovarian,43.3 µM
same,GI50,M14 melanoma,20.8 µM
same,TGI,M14 melanoma,74.1 µM
same,GI50,SK-MEL-28 melanoma,20.2 µM
same,TGI,SK-MEL-28 melanoma,58.8 µM
same,GI50,SNB-75 CNS,15.5 µM
same,TGI,SNB-75 CNS,35.5 µM
same,GI50,HT29 colon,12.5 µM
same,TGI,HT29 colon,25 µM
same,GI50,NCI-H226 lung,14.9 µM
same,TGI,NCI-H226 lung,53 µM
same,GI50,MDA-MB-231 breast,14.1 µM
same,TGI,MDA-MB-231 breast,34 µM
same,GI50,HL-60(TB) leukemia,7.74 µM
same,TGI,HL-60(TB) leukemia,39.2 µM
same,GI50,UACC-62 melanoma,24.4 µM
same,TGI,UACC-62 melanoma,> 100 µM
same,GI50,UACC-257 melanoma,21.6 µM
same,TGI,UACC-257 melanoma,74.8 µM
same,GI50,OVCAR-8 ovarian,20 µM
same,TGI,OVCAR-8 ovarian,62.6 µM
same,GI50,NCI-H460 lung,15.2 µM
same,TGI,NCI-H460 lung,36.3 µM
same,GI50,SK-OV-3 ovarian,21.5 µM
same,TGI,SK-OV-3 ovarian,52.1 µM
same,GI50,SW-620 colon,25.6 µM
same,TGI,SW-620 colon,78.9 µM
same,GI50,LOX IMVI melanoma,12.1 µM
same,TGI,LOX IMVI melanoma,24.5 µM
same,GI50,DU-145 prostate,17.8 µM
same,TGI,DU-145 prostate,31.6 µM
same,GI50,786-0 renal,16.1 µM
same,TGI,786-0 renal,37.4 µM
same,GI50,EKVX NSCLC,15.5 µM
same,TGI,EKVX NSCLC,49 µM
same,GI50,SF-539 CNS,22.7 µM
same,TGI,SF-539 CNS,54.7 µM
same,GI50,CAKI-1 renal,16.1 µM
same,TGI,CAKI-1 renal,37.4 µM
same,GI50,ACHN renal,15.8 µM
same,TGI,ACHN renal,35.4 µM
same,GI50,HCT-116 colon,13.9 µM
same,TGI,HCT-116 colon,30.6 µM
same,GI50,NCI/ADR-RES ovarian,18.6 µM
same,TGI,NCI/ADR-RES ovarian,55.5 µM
same,GI50,SN12C renal,19 µM
same,TGI,SN12C renal,42.5 µM
same,GI50,HOP-62 NSCLC,18.7 µM
same,TGI,HOP-62 NSCLC,45.4 µM
same,GI50,SK-MEL-5 melanoma,18.8 µM
same,TGI,SK-MEL-5 melanoma,36 µM
same,GI50,OVCAR-4 ovarian,17 µM
same,TGI,OVCAR-4 ovarian,55.6 µM
same,GI50,CCRF-CEM leukemia,27.9 µM
same,TGI,CCRF-CEM leukemia,> 100 µM
